Test results taken from patent US6720184B1, “Method of altering sphingolipid metabolism and detecting fumonisin ingestion and contamination” (Emory University, priority 1991, dated 2004).
Where two headings read alike, the source gives them in different places.

Assays:
[1] = tested on: ceramide synthase; test: conversion of [3H]sphingosine to [3H]ceramide by intact hepatocytes; format: cell-based, rat; conditions: 1 μM for 1 h before [3H]sphingosine (FIG. 4D)
Method: To measure the relative activity of ceramide synthase in intact hepatocytes, the cells were incubated with 1 μM fumonisin B1 for 1 h, then 1 μCi of [^3H]sphingosine was added and the cells were incubated for varying times. The [^3H]sphingosine was freshly purified because it decomposes rapidly to a material with an Rf similar to that of ceramides on TLC. The [^3H]sphingosine was diluted to 1 Ci/mmol and applied to a small silica gel column (Unisil, Clarkston, Ill.) in chloroform. The column was washed with 10-column volumes of chloroform, the [^3H]sphingosine was eluted with methanol and the purity confirmed by TLC. The [^3H]sphingosine was transferred to a small test tube, the solvent was evaporated under N2, a small volume of culture medium was added immediately, and the tube was sonicated for a few minutes using a bath-type sonicator. Aliquots of this solution were added to the cells, and at the end or the specified incubation period the cells were scraped from the dish, 25 μg of unlabelled ceramide carrier was added, and the lipids were extracted as described above. The [^3H]ceramides were separated from [^3H]sphingosine using silica gel H TLC plates developed with diethyl ether:methanol (99:1, v/v), visualized with I2 vapor, and the amount of radiolabel was determined by scintillation counting.

[2] = tested on: rat hepatocytes; test: radiolabelling of phospholipids from [14C]serine in hepatocytes; format: cell-based; conditions: 16 h with [14C]serine
Method: Other methods—The incorporation of radiolabel into other lipids was determined by separating the phospholipids by TLC using silica gel H plates developed with CHCl,:methanol:formic acid:water (56:30:2:1, v/v/v/v), visualization of the spots and standards with I2 vapor, and quantitation by scintillation counting. The amount of label in fatty acids was estimated using samples that had been incubated with 0.1 M KOH in methanol for 1 h at 37° C. and separated using the ceramide TLC system because the methyl esters migrate near the solvent front under these conditions.

[3] = tested on: serum sphingolipids; test: long-chain bases liberated from total serum lipids by acid hydrolysis, ponies fed fumonisin; format: in vivo, pony
Excerpt: (§1) Feeding protocols—Clinically normal ponies of varying age and sex were conditioned on the control diet for 21 days prior to the trial. Horse 341 was a 6 year old gelding (173-193 Kg), 299 was a 12 year old mare (205-215 Kg), 164 was a 12 year old mare (206-290 Kg) and 166 was a 16 year old mare (143-164 Kg). During the conditioning period and throughout the trial, all ponies received alfalfa hay by free choice. The test groups were fed varying levels of fumonisin (15 to 44 ppm) for varying lengths of time.
Analysis of serum long-chain bases—Blood was drawn approximately twice a week, centrifuged to obtain serum, and aliquots were frozen for analyses of free sphingosine and sphinganine by HPLC as is known in the art as described in (28). To quantitate total sphingolipids in some samples, the extracts were acid hydrolyzed before preparing the samples for HPLC.

[4] = reference 14; cited from earlier work
[5] = reference 12; cited from earlier work
[6] = Excerpt: as §1
Clinical chemistry, evaluation, and tissue collection—The following clinical chemistry parameters were also analyzed with blood: total bilirubin, direct bilirubin, urea nitrogen, alkaline phosphatase, AST/SGOT, creatine kinase, gamma glutamyl transaminase, and bile acids. The animals were observed intermittently through ut each day and behavior changes were noted. Animals that were euthanized or died underwent a routine necropsy, and brain, liver, and kidney were prepared for microscopic study.

[7] = reference 13; cited from earlier work
[8] = tested on: serine palmitoyltransferase; test: in vitro assay of serine palmitoyltransferase, rat liver microsomes; format: biochemical
Method: In vitro assays of serine palmitoyltransferase and ceramide synthase. A microsomal fraction was isolated from rat liver and assayed for serine palmitoyltransferase, as is known in the art as described in (24,29), and ceramide synthase, as is known in the art as described in (30), in the presence of varying concentrations of fumonisin B1. […] The reaction was initiated by adding palmitoyl-CoA and, after incubation at 37° C. for 15 min, the products were extracted, resolved by TLC, and quantitated as described above. Background counts were subtracted using data from identical assays that omitted palmitoyl-CoA.

[9] = tested on: de novo sphingolipid biosynthesis; test: [14C]sphingosine biosynthesis by hepatocytes isolated from rats given fumonisin B1 by gavage; format: in vivo, rat; conditions: 5 mg/200 g body weight by gavage for 2 days
[10] = tested on: serine palmitoyltransferase; test: serine palmitoyltransferase in disrupted cells after treatment of hepatocytes; format: cell-based, rat; conditions: hepatocytes treated with 2.5 μM
[11] = Pony 208, fumonisin feed (level not given), day 2
[12] = Pony 208, fumonisin feed (level not given), day 6
[13] = Pony 208, fumonisin feed (level not given), day 10
[14] = Pony 208, fumonisin feed (level not given), day 13

## CCCC[C@@H](C)[C@@H](OC(=O)C[C@@H](CC(=O)O)C(=O)O)[C@H](C[C@@H](C)C[C@H](O)CCCC[C@@H](O)C[C@H](O)[C@H](C)N)OC(=O)C[C@@H](CC(=O)O)C(=O)O [fumonisin B1]
[1]
  [3H]sphingosine conversion to ceramides: Inhibition
[2]; 1 μM
  Radiolabelling Phosphatidylcholine: 2640 ± 264 cm/mg protein × 10^−3
  Radiolabelling Phosphatidylethanolamine: 163 ± 4.4 cm/mg protein × 10^−3
  Radiolabelling Phosphatidylserine: 48.8 ± 2.9 cm/mg protein × 10^−3
[2]; 10 μM
  Radiolabelling Phosphatidylcholine: 2740 ± 196 cm/mg protein × 10^−3
  Radiolabelling Phosphatidylethanolamine: 153 ± 10 cm/mg protein × 10^−3
  Radiolabelling Phosphatidylserine: 52.3 ± 3.6 cm/mg protein × 10^−3
[3]; Pony 164, feed 44 ppm, day 2
  Sphinganine Total (acid hydrolysis of serum lipids): 169 ± 30 pmol/mL
  Sphinganine Total (−free): 99 pmol/mL
  Sphingosine Total (acid hydrolysis of serum lipids): 621 ± 99 pmol/mL
  Sphingosine Total (−free): 504 pmol/mL
[3]; Pony 164, feed 44 ppm, day 7
  Sphinganine Total (acid hydrolysis of serum lipids): 156 pmol/mL
  Sphinganine Total (−free): 0 pmol/mL
  Sphingosine Total (acid hydrolysis of serum lipids): 254 ± 32 pmol/mL
  Sphingosine Total (−free): 102 pmol/mL
[3]; Pony 164, feed 44 ppm, day 10
  Sphinganine Total (acid hydrolysis of serum lipids): 786 ± 234 pmol/mL
  Sphinganine Total (−free): 503 pmol/mL
  Sphingosine Total (acid hydrolysis of serum lipids): 2960 ± 585 pmol/mL
  Sphingosine Total (−free): 2740 pmol/mL
[3]; Pony 166, feed 44 ppm, day 2
  Sphinganine Total (acid hydrolysis of serum lipids): 131 ± 40 pmol/mL
  Sphinganine Total (−free): 94 pmol/mL
  Sphingosine Total (acid hydrolysis of serum lipids): 1020 ± 313 pmol/mL
  Sphingosine Total (−free): 974 pmol/mL
[3]; Pony 166, feed 44 ppm, day 7
  Sphinganine Total (acid hydrolysis of serum lipids): 206 ± 18 pmol/mL
  Sphinganine Total (−free): 144 pmol/mL
  Sphingosine Total (acid hydrolysis of serum lipids): 950 ± 154 pmol/mL
  Sphingosine Total (−free): 985 pmol/mL
[3]; Pony 166, feed 44 ppm, day 10
  Sphinganine Total (acid hydrolysis of serum lipids): 212 ± 28 pmol/mL
  Sphinganine Total (−free): 34 pmol/mL
  Sphingosine Total (acid hydrolysis of serum lipids): 634 ± 192 pmol/mL
  Sphingosine Total (−free): 540 pmol/mL
[3]; Pony 166, feed 44 ppm, day 13
  Sphinganine Total (acid hydrolysis of serum lipids): 823 ± 54 pmol/mL
  Sphinganine Total (−free): 650 pmol/mL
  Sphingosine Total (acid hydrolysis of serum lipids): 1740 ± 150 pmol/mL
  Sphingosine Total (−free): 1640 pmol/mL
[3]; [11]
  Sphinganine Total (acid hydrolysis of serum lipids): 387 ± 26 pmol/mL
  Sphinganine Total (−free): 107 pmol/mL
  Sphingosine Total (acid hydrolysis of serum lipids): 3490 ± 358 pmol/mL
  Sphingosine Total (−free): 3190 pmol/mL
[3]; [12]
  Sphinganine Total (acid hydrolysis of serum lipids): 718 ± 75 pmol/mL
  Sphinganine Total (−free): 60 pmol/mL
  Sphingosine Total (acid hydrolysis of serum lipids): 2390 ± 388 pmol/mL
  Sphingosine Total (−free): 2030 pmol/mL
[3]; [13]
  Sphinganine Total (acid hydrolysis of serum lipids): 2040 ± 70 pmol/mL
  Sphinganine Total (−free): 200 pmol/mL
  Sphingosine Total (acid hydrolysis of serum lipids): 4450 ± 10 pmol/mL
  Sphingosine Total (−free): 3460 pmol/mL
[3]; [14]
  Sphinganine Total (acid hydrolysis of serum lipids): 9990 ± 379 pmol/mL
  Sphinganine Total (−free): 9604 pmol/mL
  Sphingosine Total (acid hydrolysis of serum lipids): 15970 ± 1576 pmol/mL
  Sphingosine Total (−free): 15040 pmol/mL
[4]
  tumor promotion: promotion of liver tumors
[5]
  disease caused: equine leucoencephalomalacia
[6]; [11]
  AST/SGDT: 344 units
[6]; [12]
  AST/SGDT: 2130 units
[6]; [13]
  AST/SGDT: 1240 units
[6]; [14]
  AST/SGDT: 1010 units
[6]; Pony #164, feed 44 ppm, day 2
  AST/SGDT: 235 Units
[6]; Pony #164, feed 44 ppm, day 7
  AST/SGDT: 357 Units
[6]; Pony #164, feed 44 ppm, day 10
  AST/SGDT: 4000 Units
  clinical signs: ^1Pony was described as nervous and off feed from day 5; by day 9 was blind and down, and on day 10 had full clinical signs of ELEM and died that evening.
[6]; Pony #166, feed 44 ppm, after being put back on full feed
  clinical signs: ^2Pony was described as lethargic from day 5; off feed from day 8; later put back on full feed and exhibited CNS signs; was euthanized on day 45.
[6]; Pony #166, feed 44 ppm, day 2
  AST/SGDT: 199 Units
[6]; Pony #166, feed 44 ppm, day 7
  AST/SGDT: 215 Units
[6]; Pony #166, feed 44 ppm, day 10
  AST/SGDT: 1470 Units
[6]; Pony #166, feed 44 ppm, day 13
  AST/SGDT: 2080 Units
[6]; ponies 164 and 166, feed 44 ppm
  clinical outcome: resulted in ELEM
[6]; pony 164, feed 44 ppm
  time of death: 10 days
[6]; pony 166, 44 ppm, day 10
  elevation in AST/SGOT: 7 fold
[6]; pony 166, feed 44 ppm
  day of euthanasia: 45 days
[6]; pony 341, 15 then 22 ppm, day 235
  clinical outcome: died with the symptoms of equine leucoencephalomalacia
[6]; pony 341, 15 then 22 ppm, until between day 224 and 231
  serum AST/SGOT activities: essentially unaffected
[7]
  disease caused: porcine pulmonary edema
[8]; 25 μM
  effect on activity of serine palmitoyltransferase in vitro: did not reduce
[8]; in the presence of 25 μM
  activity of serine palmitoyltransferase in vitro: 88±3 pmol 3-ketosphinganine formed/min/mg of microsomal protein
[9]
  ratio of free [14C]sphingosine to [14C]sphinganine: 0.5±0.1
[10]
  inhibition of serine palmitoyltransferase in disrupted cells: no inhibition
  serine palmitoyltransferase activity in disrupted cells: 7.7±0.2 pmol/min per mg of cellular protein
